Test system: T-47D
Assay: Caspase cascade activation in T-47D solid tumor cells (fluorogenic N-(Ac-DEVD)-N'-ethoxycarbonyl-R110 substrate)
Type: cell-based, Human
Conditions: T-47D (24 hr); for EC50: Homo sapiens, T47D, read-out: Caspase Potency EC50; for Caspase Activity Ratio: ratio of net RFU of test compound to that of control samples
Description: Human breast cancer cell lines T-47D and DLD-1 were grown according to media component mixtures designated by American Type Culture Collection+10% FCS (Invitrogen Corporation), in a 5% CO2-95% humidity incubator at 37° C. T-47D and DLD-1 cells were maintained at a cell density between 50 and 80% confluency at a cell density of 0.1 to 0.6×10^6 cells/mL. Cells were harvested at 600×g and resuspended at 0.65×10^6 cells/mL into appropriate media+10% FCS. An aliquot of 22.5 μL of cells was added to a well of a 384-well microtiter plate containing 2.5 μL of a 10% DMSO in RPMI-1640 media solution containing 0.16 to 100 μM of (2-chloro-quinazolin-4-yl)-(4-dimethylaminophenyl)-methylamine or other test compound (0.016 to 10 μM final). An aliquot of 22.5 μL of cells was added to a well of a 384-well microtiter plate containing 2.5 μL of a 10% DMSO in RPMI-1640 media solution without test compound as the control sample. […] After incubation, the samples were removed from the incubator and 25 μL of a solution containing 14 μM of N-(Ac-DEVD)-N′-ethoxycarbonyl-R110 fluorogenic substrate (Cytovia, Inc.; WO99/18856), 20% sucrose (Sigma), 20 mM DTT (Sigma), 200 mM NaCl (Sigma), 40 mM Na PIPES buffer pH 7.2 (Sigma), and 500 μg/mL lysolecithin (Calbiochem) was added. The samples were mixed by agitation and incubated at room temperature. Using a fluorescent plate reader (Model SPECTRAfluor Plus, Tecan), an initial reading (T=0) was made approximately 1-2 min after addition of the substrate solution, employing excitation at 485 nm and emission at 530 nm, to determine the background fluorescence of the control sample. After the 3 h incubation, the samples were read for fluorescence as above (T=3 h).
The Relative Fluorescence Unit values (RFU) were used to calculate the sample readings as follows: RFU(T=3h)−Control RFU(T=0)=Net RFU(T=3h)
The activity of caspase cascade activation was determined by the ratio of the net RFU value for (2-chloro-quinazolin-4-yl)-(4-dimethylaminophenyl)-methylamine or other test compounds to that of control samples. The EC50 (nM) was determined by a sigmoidal dose-response calculation (Prism 3.0, GraphPad Software Inc.).

Row | SMILES | EC50 [nM] | Caspase Activity Ratio
1 | COc1cc(Nc2nc(C)nc3ccccc23)cc(OC)c1OC [Example 38, (2-Methyl-quinazolin-4-yl)-(3,4,5-trimethoxy-phenyl)-amine] | > 10000 | 0.9
2 | COc1ccc(N(C)c2nc(C)nc3ccc(N(C)C(C)=O)cc23)cc1 [Example 40, (6-N-methyl-acetamido-2-methyl-quinazolin-4-yl)-(4-methoxy-phenyl)-methylamine] | 290 | 2.7
3 | COc1ccc(N(C)c2nc(NC(C)=O)nc3ccccc23)cc1 [Example 41, (2-Acetamido-quinazolin-4-yl)-(4-methoxy-phenyl)-methylamine] | 27 | 3.5

Reference: US7989462B2, “4-arylamin-or-4-heteroarylamino-quinazolines and analogs as activators of caspases and inducers of apoptosis and the use thereof” (Myrexis, Inc., priority 2003, dated 2011)
